Data reported in patent US20110245316A1, “PREVENTION OR DELAY OF ONSET OF ORAL MUCOSITIS” (SCICLONE PHARMACEUTICALS, INC., priority 2010, published 2011).
Entries after “also recorded” stand apart in the source; their conditions may differ.

Test system: oral mucositis in patients receiving chemoradiation for head and neck cancer
Experiment: Phase 2 randomized, double-blind, placebo-controlled trial: onset of oral mucositis (WHO OM Scale) in patients receiving CT/RT
Assay type: in vivo, human
Conditions: for gastrostomy tube placement and use / unplanned office and emergency room visits: higher dose (0.1 mg/kg); for severe OM, percent of patients: subcutaneous 0.1 mg/kg (HD)
Excerpt: OM is a painful, debilitating, and costly toxicity of different chemoradiotherapy (CT/RT) regimens used to treat head and neck cancer. This trial is a phase 2, randomized, double-blind, dose-ranging, placebo-controlled three-arm study in patients receiving CT/RT for the treatment of head and neck cancer, to assess the safety and tolerability of γ-D-glutamyl-L-tryptophan (SCV-07) as well as its efficacy in delaying the onset of severe OM as assessed by the WHO Oral Mucositis Scale.
The WHO OM Scale is the standard, validated instrument used in clinical trials to measure OM: Grade 0=none; Grade 1=erythema and soreness, no ulcers; Grade 2=ulcers, able to eat a solid diet; Grade 3=ulcers; requires a liquid diet; Grade 4=ulcers, not able to tolerate a solid or liquid diet, requires IV or tube feeding.
59 eligible patients with recently diagnosed, treatment naïve, pathologically-confirmed, non-metastatic squamous cell carcinoma of the oral cavity, oropharynx, hypopharynx or larynx were enrolled and treated with a concomitant regimen of CT/RT consisting of a continuous course of external beam irradiation (IMRT eligible) with a minimum cumulative dose of 50 Gray (Gy) and cisplatin monotherapy administered using standard weekly or tri-weekly dosing regimens (80-100 mg/m^2 administered on Days 0, 21 and 42) or weekly (30-40 mg/m^2). At least two ‘at risk’ intraoral sites were included in the radiation fields and received a cumulative RT dose of at least 50 Gy. Subjects were equally randomized to receive either placebo or one of two doses of γ-D-glutamyl-L-tryptophan (0.02 or 0.1 mg/kg) on each radiation day for up to 7 weeks.
Tables 2-7 summarize the statistics for the Full Analysis Set “FAS” (57 subjects), and the completer population (52 subjects), with respect to delay of onset of severe oral mucositis. Also see FIGS. 1 and 2.
SCV-07 efficacy, dosing and scheduling parameters were assessed in hamster models of acute, fractionated and concomitant chemoradiation (CRT). […] A multicenter, prospective, blinded, randomized trial evaluated SCV-07's ability to alter OM in CRT-treated HNC patients (n=57). Cytokine and gene microarray analyses were performed for samples obtained before and on the last radiation day.

[1] = 0.10 mg/kg, Completer Population
[2] = 0.10 mg/kg, Completer Population, at 30-<35 Gy
[3] = 0.10 mg/kg, Completer Population, at 35-<40 Gy
[4] = 0.10 mg/kg, Completer Population, at 40-<45 Gy
[5] = 0.10 mg/kg, Completer Population, at 45-<50 Gy
[6] = 0.10 mg/kg, Completer Population, at 50-<55 Gy
[7] = 0.10 mg/kg, Completer Population, at 55-<60 Gy
[8] = 0.10 mg/kg, Completer Population, at 65-<70 Gy
[9] = 0.10 mg/kg, Completer Population, at ≧70 Gy
[10] = listed as γ-D-glutamyl-L-tryptophan, 0.1 mg/kg

## N[C@H](CCC(=O)N[C@@H](Cc1c[nH]c2ccccc12)C(=O)O)C(=O)O [SCV-07, γ-D-glutamyl-L-tryptophan]
[1]
  Cumulative Dose of RT (Gy) at Initial Onset of Ulcerative OM, Median: 26 Gy
  Cumulative Dose of RT (Gy) at Initial Onset of Ulcerative OM, Min: 8 Gy
  Cumulative Dose of Radiation (Gy) Prior to Initial Occurrence of Severe OM (Delay to Onset of Severe OM), K-M Estimate, Mean (SE): 56 (3.8) Gy
  Cumulative Dose of Radiation (Gy) Prior to Initial Occurrence of Severe OM, K-M Estimate, Median (95% CI): 57 (51, NA) Gy
  Cumulative Dose of Radiation (Gy) Prior to Initial Occurrence of Ulcerative OM (Delay to Onset of Ulcerative OM), K-M Estimate, Mean (SE): 30 (3.7) Gy
  Cumulative Dose of Radiation (Gy) Prior to Initial Occurrence of Ulcerative OM, K-M Estimate, 25%-75%: 19-46 Gy
  Cumulative Dose of Radiation (Gy) Prior to Initial Occurrence of Ulcerative OM, K-M Estimate, Median (95% CI): 26 (19, 41) Gy
  Time (Days) to Initial Occurrence of Sever OM, K-M Estimate, Mean (SE): 38 (2.5) Days
  Time (Days) to Initial Occurrence of Sever OM, K-M Estimate, Median (95% CI): 43 (33, NA) Days
  Time (Days) to Initial Occurrence of Ulcerative OM, K-M Estimate, 25%-7%: 12 to 32 days
  Time (Days) to Initial Occurrence of Ulcerative OM, K-M Estimate, Mean (SE): 20 (2.7) Days
  Time (Days) to Initial Occurrence of Ulcerative OM, K-M Estimate, Median (95% CI): 16 (13, 31) Days
0.10 mg/kg, Completer Population, FIG. 3
  delay to onset of ulcerative OM (WHO score >1) as a function of cumulative radiation dose: showed a delay to onset of OM
0.10 mg/kg, Completer Population, at 5-<10 Gy
  Cum. Percent of Subjects with Ulcerative OM (WHO > 1): 6% (1%, 37%)
0.10 mg/kg, Completer Population, at 10-<15 Gy
  Cum. Percent of Subjects with Ulcerative OM (WHO > 1): 6% (1%, 37%)
0.10 mg/kg, Completer Population, at 15-<20 Gy
  Cum. Percent of Subjects with Ulcerative OM (WHO > 1): 38% (19%, 65%)
0.10 mg/kg, Completer Population, at 20-<25 Gy
  Cum. Percent of Subjects with Ulcerative OM (WHO > 1): 50% (29%, 75%)
0.10 mg/kg, Completer Population, at 25-<30 Gy
  Cum. Percent of Subjects with Ulcerative OM (WHO > 1): 63% (40%, 85%)
[2]
  Cum. Percent of Subjects with Severe OM (WHO > 2): 13% (3%, 41%)
  Cum. Percent of Subjects with Ulcerative OM (WHO > 1): 69% (46%, 89%)
[3]
  Cum. Percent of Subjects with Severe OM (WHO > 2): 13% (3%, 41%)
  Cum. Percent of Subjects with Ulcerative OM (WHO > 1): 69% (46%, 89%)
[4]
  Cum. Percent of Subjects with Severe OM (WHO > 2): 19% (6%, 48%)
  Cum. Percent of Subjects with Ulcerative OM (WHO > 1): 75% (53%, 92%)
[5]
  Cum. Percent of Subjects with Severe OM (WHO > 2): 25% (10%, 54%)
  Cum. Percent of Subjects with Ulcerative OM (WHO > 1): 75% (53%, 92%)
[6]
  Cum. Percent of Subjects with Severe OM (WHO > 2): 38% (19%, 65%)
  Cum. Percent of Subjects with Ulcerative OM (WHO > 1): 94% (75%, 100%)
[7]
  Cum. Percent of Subjects with Severe OM (WHO > 2): 56% (34%, 80%)
  Cum. Percent of Subjects with Ulcerative OM (WHO > 1): 94% (75%, 100%)
0.10 mg/kg, Completer Population, at 60-<65 Gy
  Cum. Percent of Subjects with Ulcerative OM (WHO > 1): 94% (75%, 100%)
0.10 mg/kg, Completer Population, at 60->65 Gy
  Cum. Percent of Subjects with Severe OM (WHO > 2): 64% (41%, 86%)
[8]
  Cum. Percent of Subjects with Severe OM (WHO > 2): 73% (48%, 92%)
  Cum. Percent of Subjects with Ulcerative OM (WHO > 1): 94% (75%, 100%)
0.10 mg/kg, Completer Population, at <5 Gy
  Cum. Percent of Subjects with Ulcerative OM (WHO > 1): 0% (0%, 0%)
0.10 mg/kg, Completer Population, at <30 Gy
  Cum. Percent of Subjects with Severe OM (WHO > 2): 6% (1%, 37%)
[9]
  Cum. Percent of Subjects with Severe OM (WHO > 2): 73% (48%, 92%)
  Cum. Percent of Subjects with Ulcerative OM (WHO > 1): 94% (75%, 100%)
0.10 mg/kg, FAS population
  Cumulative Dose of RT (Gy) at Initial Onset of Severe OM, Max: 72 Gy
  Cumulative Dose of RT (Gy) at Initial Onset of Severe OM, Mean (SD): 54 (15.6) Gy
  Cumulative Dose of RT (Gy) at Initial Onset of Severe OM, Median: 56 Gy
  Cumulative Dose of RT (Gy) at Initial Onset of Severe OM, Min: 20 Gy
  Cumulative Dose of Radiation (Gy) Prior to Initial Occurrence of Severe OM (Delay to Onset of Severe OM), K-M Estimate, Mean (SE): 54 (3.9) Gy
  Cumulative Dose of Radiation (Gy) Prior to Initial Occurrence of Severe OM, K-M Estimate, Median (95% CI): 56 (46, 70) Gy
  Time (Days) to Initial Occurrence of Severe OM, K-M Estimate, Mean (SE): 37 (2.7) Days
  Time (Days) to Initial Occurrence of Severe OM, K-M Estimate, Median (95% CI): 40 (32, NA) Days
0.10 mg/kg, FAS population, at 30-<35 Gy
  Cum. Percent of Subjects with Severe OM (WHO > 2): 18% (6%, 45%)
0.10 mg/kg, FAS population, at 35-<40 Gy
  Cum. Percent of Subjects with Severe OM (WHO > 2): 18% (6%, 45%)
0.10 mg/kg, FAS population, at 40-<45 Gy
  Cum. Percent of Subjects with Severe OM (WHO > 2): 24% (10%, 51%)
0.10 mg/kg, FAS population, at 45-<50 Gy
  Cum. Percent of Subjects with Severe OM (WHO > 2): 29% (13%, 57%)
0.10 mg/kg, FAS population, at 50-<55 Gy
  Cum. Percent of Subjects with Severe OM (WHO > 2): 41% (22%, 67%)
0.10 mg/kg, FAS population, at 55-<60 Gy
  Cum. Percent of Subjects with Severe OM (WHO > 2): 59% (37%, 81%)
0.10 mg/kg, FAS population, at 60-<65 Gy
  Cum. Percent of Subjects with Severe OM (WHO > 2): 66% (44%, 87%)
0.10 mg/kg, FAS population, at 65-<70 Gy
  Cum. Percent of Subjects with Severe OM (WHO > 2): 74% (51%, 93%)
0.10 mg/kg, FAS population, at >30 Gy
  Cum. Percent of Subjects with Severe OM (WHO > 2): 6% (1%, 35%)
0.10 mg/kg, FAS population, at ≧70 Gy
  Cum. Percent of Subjects with Severe OM (WHO > 2): 74% (51%, 93%)
0.10 mg/kg, Full Analysis Set, FIG. 1
  delay to onset of severe OM (WHO score >2) as a function of cumulative radiation dose: showed a delay to onset of OM
0.10 mg/kg, patients that completed radiation therapy, FIG. 2
  delay to onset of severe OM (WHO score >2) as a function of cumulative radiation dose: showed a delay to onset of OM
HD (0.1 mg/kg)
  treatment breaks: fewer
HD SCV-07 cohort vs. placebo
  Cox regression analysis of time to UOM initial occurrence, decrease vs. placebo: 52%
SCV-07 high dose
  Number of Days that Patients used the G-Tube: 44 days
SCV-07 high dose (n = 3/20)
  Percent of Patients with G-Tube Placement: 18%
SCV-07 low dose
  Number of Days that Patients used the G-Tube: 57 days
SCV-07 low dose (n = 4/20)
  Percent of Patients with G-Tube Placement: 20%
High dose (0.1 mg/kg) vs placebo, 0.1 mg/kg
  delay to onset of ulcerative OM (WHO scale, grades 2 to 4): more pronounced clinical benefit; also recorded: delayed
High dose (0.1 mg/kg) vs placebo, listed as γ-D-glutamyl-L-tryptophan, 0.1 mg/kg
  delay to onset of ulcerative OM (WHO scale, grades 2 to 4): showed a trend towards delay in onset
High dose vs placebo and low dose
  days of gastrostomy tube use: fewer days
Higher dose (0.1 mg/kg) vs placebo, 0.1 mg/kg
  delay to severe OM (WHO scale, grades 3 and 4), primary endpoint: showed a trend towards delay to severe OM; also recorded: delayed severe OM vs. placebo
Higher dose (0.1 mg/kg) vs placebo, listed as γ-D-glutamyl-L-tryptophan, 0.1 mg/kg
  delay to severe OM (WHO scale, grades 3 and 4), primary endpoint: showed a trend towards delay in onset
0.1 mg/kg
  gastrostomy tube placement and use: fewer G-tubes placed
  unplanned office and emergency room visits: fewer
[10]
  gastrostomy tube placement and use: less reliance on gastrostomy tube placement and use
  unplanned office and emergency room visits: fewer unplanned office and emergency room visits
Low dose (0.02 mg/kg) vs placebo
  delay to onset of ulcerative OM (WHO scale, grades 2 to 4): appeared similar or slightly better than placebo
Low dose (0.02 mg/kg) vs placebo, 0.02 mg/kg
  delay to severe OM (WHO scale, grades 3 and 4), primary endpoint: appeared to do worse than placebo and not
Patients receiving SCV-07 vs placebo
  placement of a gastrostomy feeding tube: less likely to require placement of a gastrostomy feeding tube
At 50 Gy, placebo 42%
  severe OM, percent of patients: 29%
At ≦40Gy, placebo 32%
  severe OM, percent of patients: 18%
